# Measurements from patent publication US9643999B2 (Bristol-Myers Squibb Company, priority 2012, dated 2017).
# Where two headings read alike, the source gives them in different places.
# How the values were obtained:
# [1] = tested on: HCV genotype 1b replicon; assay: HCV replicon luciferase reporter assay, genotype 1b (LE_1b); assay type: cell-based; conditions: Hepatitis C virus, 72 h, HUH-7 cells, genotype 1b (Con1) replicon, 3 days incubation, Renilla luciferase
# Excerpt: An HCV replicon whole cell system was established as described by Lohmann V, Korner F, Koch J, Herian U, Theilmann L, Bartenschlager R., Science 285(5424):110-3 (1999) and modified to introduce a luciferase reporter, as first described by Krieger et al (Krieger N, Lohmann V, and Bartenschlager R, J. Virol. 75(10):4614-4624 (2001)). cDNA encoding a humanized form of the Renilla luciferase gene and a linker sequence fused directly to the 3′-end of the luciferase gene were introduced into the replicon construct using an Asc1 restriction site located in core, directly upstream of the neomycin marker gene. The adaptive mutation at position 1179 (serine to isoleucine) was also introduced (Blight K J, Kolykhalov, A A, Rice, C M, Science 290(5498):1972-1974). A stable cell line constitutively expressing this HCV replicon construct was generated by first linearizing plasmid DNAs with ScaI. RNA transcripts were synthesized in vitro using the T7 MegaScript transcription kit (Ambion, Austin, Tex.) according to manufacturer's directions. In vitro transcripts of the cDNA were transfected into the human hepatoma cell line, HUH-7. […] Resulting cell lines were characterized for positive and negative strand RNA production and protein production over time. […]
# (§1) HCV replicon luciferase assays were developed to monitor the inhibitory effects of compounds described in the disclosure on HCV genotypes 1a and 1b viral replication. HUH-7 cells, constitutively expressing the HCV replicon, were grown in Dulbecco's Modified Eagle Media (DMEM) (Gibco-BRL) containing 10% Fetal calf serum (FCS) (Sigma) and 1 mg/mL G418 (Gibco-BRL). Compounds were serially diluted 3 folds in DMSO for a twenty-point titration and subsequently transferred to sterile 384-well tissue-culture treated plates (Corning cat #3571). The plates were then seeded with 50 μL of cells at a density of 3.0×10^3 cells/well in DMEM containing 4% FCS (final DMSO concentration at 0.5%). After 3 days incubation at 37° C., cells were analyzed for Renilla Luciferase activity using the EnduRen as substrate (Promega cat #E6485). The EnduRen substrate was diluted in DMEM and then added to the plates to a final concentration of 7.5 μM. The plates were incubated for 2 hrs at 37° C. and then read immediately for 30 seconds with Viewlux Imager (PerkinElmer) using a luminescence program. To assess cytotoxicity of compounds, CC50 values were generated by multiplexing the EnduRen-containing plates with Cell Titer-Blue (Promega, cat #G8082). Cell-Titer Blue (3 μL) was added to each well and incubated for 8 hrs at 37° C. The fluorescence signal from each well was read, with an excitation wavelength at 525/10 nm and an emission wavelength of 598/10 nm, using the Viewlux Imager.
# (§2) The EC50 values for compounds were calculated by using a four-parameter logistic equation: y=A+((B−A)/(1+((C/x)^D))), where A and B denotes minimal and maximal % inhibition, respectively, C is the EC50, D is the hill slope and x represents compound concentration.
# [2] = tested on: HCV genotype 1a replicon; assay: HCV replicon luciferase reporter assay, genotype 1a (LE_1a); assay type: cell-based; conditions: Hepatitis C virus, 72 h, HUH-7 cells, genotype 1a H77 replicon, 3 days incubation, Renilla luciferase
# Excerpt: An HCV replicon whole cell system was established as described by Lohmann V, Korner F, Koch J, Herian U, Theilmann L, Bartenschlager R., Science 285(5424):110-3 (1999) and modified to introduce a luciferase reporter, as first described by Krieger et al (Krieger N, Lohmann V, and Bartenschlager R, J. Virol. 75(10):4614-4624 (2001)). cDNA encoding a humanized form of the Renilla luciferase gene and a linker sequence fused directly to the 3′-end of the luciferase gene were introduced into the replicon construct using an Asc1 restriction site located in core, directly upstream of the neomycin marker gene. The adaptive mutation at position 1179 (serine to isoleucine) was also introduced (Blight K J, Kolykhalov, A A, Rice, C M, Science 290(5498):1972-1974). A stable cell line constitutively expressing this HCV replicon construct was generated by first linearizing plasmid DNAs with ScaI. RNA transcripts were synthesized in vitro using the T7 MegaScript transcription kit (Ambion, Austin, Tex.) according to manufacturer's directions. In vitro transcripts of the cDNA were transfected into the human hepatoma cell line, HUH-7. […] Resulting cell lines were characterized for positive and negative strand RNA production and protein production over time.
# A stable HCV replicon luciferase reporter cell line representing the genotype 1a H77 strain (Yanagi M, Purcell R H, Emerson S U, et al. Transcripts from a single full-length cDNA clone of hepatitis C virus are infectious when directly transfected into the liver of a chimpanzee. Proc Natl Acad Sci USA 1997; 94(16):8738-8743) was generated as described previously for the genotype 1b(Con1) replicon luciferase cell line. The replicon construct was modified by introducing mutations were introduced into the genes encoding the NS3 helicase domain (proline replaced by leucine at position 1496) and NS5A (serine to isoleucine at position 2204) to improve replication in cell culture.
# as §1, §2
SMILES,EC50 ([1]; read-out: LE_1b (EC50)) [nM],"EC50 ([1]; read-out: LE_1b (EC50, range)) [nM]",EC50 ([2]; read-out: LE_1a (EC50)) [nM],"EC50 ([2]; read-out: LE_1a (EC50, range)) [nM]"
CC[C@@H]1C[C@H](C)CC/C=C\[C@@H]2C[C@@]2(C(=O)NS(=O)(=O)C2(C)CC2)NC(=O)[C@@H]2C[C@@H](Oc3cc(-n4ccc(C(C)C)n4)nc4cc(OC)ccc34)CN2C(=O)[C@H]1NC(=O)OC(C)(C)C [Compound 4294],0.89,0.51 to 1,0.85,0.51 to 1
COc1ccc2c(O[C@@H]3C[C@H]4C(=O)N[C@]5(C(=O)NS(=O)(=O)C6(C)CC6)C[C@H]5/C=C\CC[C@@H](C)C[C@@H](C)[C@H](NC(=O)OC(C)(C)C(F)(F)F)C(=O)N4C3)cc(-n3ccc(C(C)C)n3)nc2c1 [Compound 4299],,0.51 to 1,,0.51 to 1
COc1ccc2c(O[C@@H]3C[C@H]4C(=O)N[C@]5(C(=O)NS(=O)(=O)C6(C)CC6)C[C@H]5/C=C\CC[C@@H](C)C[C@@H](C)[C@H](NC(=O)OC(C)(C)C(F)(F)F)C(=O)N4C3)cc(-n3ccc(C(F)(F)F)n3)nc2c1 [Compound 4301],,0.51 to 1,,0.51 to 1
COc1ccc2nc(O[C@@H]3C[C@H]4C(=O)N[C@]5(C(=O)NS(=O)(=O)C6(C)CC6)C[C@H]5/C=C\CC[C@@H](C)C[C@@H](C)[C@H](NC(=O)OC(C)(C)C)C(=O)N4C3)c(C3CC3)nc2c1 [Compound 4303],,1.01 to 5,,1.01 to 5
CC[C@@H]1C[C@H](C)CC/C=C\[C@@H]2C[C@@]2(C(=O)NS(=O)(=O)C2CC2)NC(=O)[C@@H]2C[C@@H](Oc3nc4ccc(OC)cc4nc3C3CC3)CN2C(=O)[C@H]1NC(=O)OC(C)(C)C [Compound 4306],,5.01 to 35,,5.01 to 35
CC[C@@H]1C[C@H](C)CC/C=C\[C@@H]2C[C@@]2(C(=O)NS(=O)(=O)C2CC2)NC(=O)[C@@H]2C[C@@H](Oc3nc4cc(OC)ccc4nc3C3CC3)CN2C(=O)[C@H]1NC(=O)OC(C)(C)C [Compound 4307],,1.01 to 5,,1.01 to 5
CC[C@@H]1C[C@H](C)CC/C=C\[C@@H]2C[C@@]2(C(=O)NS(=O)(=O)C2CC2)NC(=O)[C@@H]2C[C@@H](Oc3nc4ccc(OC)cc4nc3C3CC3)CN2C(=O)[C@H]1NC(=O)OC(C)(C)C(F)(F)F [Compound 4308],,5.01 to 35,,5.01 to 35
CC[C@@H]1C[C@H](C)CC/C=C\[C@@H]2C[C@@]2(C(=O)NS(=O)(=O)C2CC2)NC(=O)[C@@H]2C[C@@H](Oc3nc4cc(OC)ccc4nc3C3CC3)CN2C(=O)[C@H]1NC(=O)OC(C)(C)C(F)(F)F [Compound 4309],2.31,1.01 to 5,3.51,1.01 to 5
"CC[C@@H]1C[C@H](C)CC/C=C\[C@@H]2C[C@@]2(C(=O)NS(=O)(=O)C2CC2)NC(=O)[C@@H]2C[C@@H](Oc3nc4cccnc4nc3C(F)(F)F)CN2C(=O)[C@H]1NC(=O)OC(C)(C)C [Compound 4329, tert-butyl((2R,6S,7R,9R,13aS,14aR,16aS,Z)-14a-((cyclopropylsulfonyl)carbamoyl)-7-ethyl-9-methyl-5,16-dioxo-2-((3-(trifluoromethyl)pyrido[2,3-b]pyrazin-2-yl)oxy)-1,2,3,5,6,7,8,9,10,11,13a,14,14a,15,16,16a-hexadecahydrocyclopropa[e]pyrrolo[1,2-a][1,4]diazacyclopentadecin-6-yl)carbamate]",,35 to 145,,35 to 145
"CC[C@@H]1C[C@H](C)CC/C=C\[C@@H]2C[C@@]2(C(=O)NS(=O)(=O)C2CC2)NC(=O)[C@@H]2C[C@@H](Oc3nc4ncccc4nc3C(F)(F)F)CN2C(=O)[C@H]1NC(=O)OC(C)(C)C [Compound 4330, tert-butyl((2R,6S,7R,9R,13aS,14aR,16aS,Z)-14a-((cyclopropylsulfonyl)carbamoyl)-7-ethyl-9-methyl-5,16-dioxo-2-((2-(trifluoromethyl)pyrido[2,3-b]pyrazin-3-yl)oxy)-1,2,3,5,6,7,8,9,10,11,13a,14,14a,15,16,16a-hexadecahydrocyclopropa[e]pyrrolo[1,2-a][1,4]diazacyclopentadecin-6-yl)carbamate]",,5.01 to 35,,5.01 to 35
CC[C@@H]1C[C@H](C)CC/C=C\[C@@H]2C[C@@]2(C(=O)NS(=O)(=O)C2(C)CC2)NC(=O)[C@@H]2C[C@@H](Oc3cc(-n4ccc(C(C)C)n4)nc4cc(OC)ccc34)CN2C(=O)[C@H]1NC(=O)OC(C)(C)C(F)(F)F [Compound 4358],,1.01 to 5,,1.01 to 5
"C[C@@H]1CC/C=C\[C@@H]2C[C@@]2(C(=O)NS(=O)(=O)C2(C)CC2)NC(=O)[C@@H]2C[C@@H](Oc3nccc4c5c(ccc34)CCO5)CN2C(=O)[C@@H](NC(=O)OC(C)(C)C)[C@H](C)C1 [Compound 5491, tert-butyl((2R,6S,7R,9R,13aS,14aR,16aS,Z)-2-((2,3-dihydrofuro[2,3-f]isoquinolin-6-yl)oxy)-7,9-dimethyl-14a-(((1-methylcyclopropyl)sulfonyl)carbamoyl)-5,16-dioxo-1,2,3,5,6,7,8,9,10,11,13a,14,14a,15,16,16a-hexadecahydrocyclopropa[e]pyrrolo[1,2-a][1,4]diazacyclopentadecin-6-yl)carbamate]",2.57,1.01 to 5,5.41,5.01 to 35
"CC[C@@H]1C[C@H](C)CC/C=C\[C@@H]2C[C@@]2(C(=O)NS(=O)(=O)C2(C)CC2)NC(=O)[C@@H]2C[C@@H](Oc3nccc4c5c(ccc34)CCO5)CN2C(=O)[C@H]1NC(=O)OC(C)(C)C [Compound 5493, tert-butyl((2R,6S,7R,9R,13aS,14aR,16aS,Z)-2-((2,3-dihydrofuro[2,3-f]isoquinolin-6-yl)oxy)-7-ethyl-9-methyl-14a-(((1-methylcyclopropyl)sulfonyl)carbamoyl)-5,16-dioxo-1,2,3,5,6,7,8,9,10,11,13a,14,14a,15,16,16a-hexadecahydrocyclopropa[e]pyrrolo[1,2-a][1,4]diazacyclopentadecin-6-yl)carbamate]",,5.01 to 35,,35 to 145
C[C@@H]1CC/C=C\[C@@H]2C[C@@]2(C(=O)NS(=O)(=O)C2(C)CC2)NC(=O)[C@@H]2C[C@@H](Oc3nccc4c5c(ccc34)CCO5)CN2C(=O)[C@@H](NC(=O)OC(C)(C)C(C)(F)F)[C@H](C)C1 [Compound 5495],,0.51 to 1,,1.01 to 5
C[C@@H]1CC/C=C\[C@@H]2C[C@@]2(C(=O)NS(=O)(=O)C2(C)CC2)NC(=O)[C@@H]2C[C@@H](Oc3nccc4c5c(ccc34)CCO5)CN2C(=O)[C@@H](NC(=O)OC(C)(C)C(F)(F)F)[C@H](C)C1 [Compound 5497],,1.01 to 5,,5.01 to 35
CC[C@@H]1C[C@H](C)CC/C=C\[C@@H]2C[C@@]2(C(=O)NS(=O)(=O)C2(C)CC2)NC(=O)[C@@H]2C[C@@H](Oc3nccc4c5c(ccc34)CCO5)CN2C(=O)[C@H]1NC(=O)OC(C)(C)C(F)(F)F [Compound 5500],,5.01 to 35,,5.01 to 35
